This note sets out measurements from US6632975B1, “Method for the production of in vivo model of hepatocellular carcinoma without lung metastasis” (Kabushiki Kaisha Daiyu-Kai Institute of Medical Science, priority 2000, dated 2003).

This data set relates to F344 Fisher rats. Put plainly: Production of in vivo lung metastatic hepatoma model: incidences of hepatocellular carcinoma and lung metastasis, survival (Example 1). Also noted: species or system rat. Here is the method: Animals used in this example were F344 Fisher rats (purchased from Charles River Japan Inc.).
Diethylnitrosoamine (hereinafter, referred to as “DEN”) and nitrosomorpholine (hereinafter, referred to as “NMOR”) were purchased from Tokyo Kasei Kogyo Co., Ltd.
DEN was diluted with physiological saline, and intraperitoneally injected in animals at a dose of 100 mg/kg body weight, or it was diluted with tap water to make the concentration of 50 ppm and administered via drinking water feeding bottle. NMOR was diluted with tap water to make the concentration of 120 ppm, and administered via a drinking water feeding bottle.
Animals were divided into four groups and treated as follows: Animals of the first group were given 50 ppm of DEN in drinking water for 16 weeks, and were sacrificed and subjected to autopsy in week 16. Animals of the second group were given 100 mg/kg body weight of DEN via intraperitoneal injection at the start of the experiment, and were sacrificed and subjected to autopsy in week 22. Animals of the third group were given 120 ppm of NMOR in drinking water for 22 weeks, and were sacrificed and subjected to autopsy in week 22. Animals of the fourth group were given 100 mg/kg body weight of DEN via intraperitoneal injection at the start of the experiment were given NMOR from the start to week 22 of the experiment, and were sacrificed and subjected to autopsy in week 22.
Liver and lung as well as other tissues were collected, fixed in formalin and stained with hematoxylin-eosin by the standard method to prepare specimens. Specimens were microscopically examined for presence of hepatocellular carcinoma in the liver and metastatic lesion in the lung to determine incidences of hepatocellular carcinoma and lung metastasis, which are shown in FIG. 1.

[1] abbreviates: DEN 50 ppm in drinking water for 16 weeks, autopsy week 16.
Setting [2] is: NMOR 120 ppm in drinking water for 22 weeks, autopsy week 22.

SMILES strings stand for the structures.

Consider `CCN(CC)N=O` [DEN, Diethylnitrosoamine], for which, under setting [1], the incidence of hepatoma is given as 100% and the lung metastasis result is listed as “no lung metastasis was observed”.

As to `O=NN1CCOCC1` [NMOR, nitrosomorpholine], under setting [2], the incidence of hepatoma was 100% and the “lung metastasis (animals affected)” value was “only one animal”.
